According to the NIST ThermoML archive (doi:10.1021/je200922s):
Numbers after ± are expanded uncertainties.

Assay: xn = mol fraction of the nth substance listed
Conditions: 101 kPa, Liquid; for viscosity: Capillary tube (Ostwald / Ubbelohde) method; for mass density: Vibrating tube method

CCn1cc[n+](C)c1.O=S(=O)([N-]S(=O)(=O)C(F)(F)F)C(F)(F)F + CN1CCCC1=O
viscosity (293.15 K, x1 = 0.0978): 3.344 ± 0.14 mPa·s | viscosity (293.15 K, x1 = 0.1979): 5.561 ± 0.23 mPa·s | viscosity (293.15 K, x1 = 0.2957): 8.637 ± 0.35 mPa·s | viscosity (293.15 K, x1 = 0.395): 12.04 ± 0.49 mPa·s | viscosity (293.15 K, x1 = 0.493): 15.84 ± 0.65 mPa·s | viscosity (293.15 K, x1 = 0.5893): 20.06 ± 0.82 mPa·s | viscosity (293.15 K, x1 = 0.6917): 24.72 ± 1 mPa·s | viscosity (293.15 K, x1 = 0.798): 29.72 ± 1.2 mPa·s | viscosity (293.15 K, x1 = 0.9002): 34.93 ± 1.4 mPa·s | mass density (293.15 K, x1 = 0.0978): 1144.09 ± 0.36 kg/m3 | mass density (293.15 K, x1 = 0.1979): 1228.99 ± 0.45 kg/m3 | mass density (293.15 K, x1 = 0.2957): 1292.83 ± 0.51 kg/m3 | mass density (293.15 K, x1 = 0.395): 1344.49 ± 0.56 kg/m3 | mass density (293.15 K, x1 = 0.493): 1386.31 ± 0.59 kg/m3 | mass density (293.15 K, x1 = 0.5893): 1420.55 ± 0.61 kg/m3 | mass density (293.15 K, x1 = 0.6917): 1451.44 ± 0.63 kg/m3 | mass density (293.15 K, x1 = 0.798): 1478.94 ± 0.65 kg/m3 | mass density (293.15 K, x1 = 0.9002): 1502.24 ± 0.67 kg/m3 | viscosity (298.15 K, x1 = 0.0978): 3.026 ± 0.12 mPa·s | viscosity (298.15 K, x1 = 0.1979): 4.943 ± 0.2 mPa·s | viscosity (298.15 K, x1 = 0.2957): 7.604 ± 0.31 mPa·s | viscosity (298.15 K, x1 = 0.395): 10.45 ± 0.43 mPa·s | viscosity (298.15 K, x1 = 0.493): 13.6 ± 0.56 mPa·s | viscosity (298.15 K, x1 = 0.5893): 17.07 ± 0.7 mPa·s | viscosity (298.15 K, x1 = 0.6917): 20.87 ± 0.86 mPa·s | viscosity (298.15 K, x1 = 0.798): 24.7 ± 1 mPa·s | viscosity (298.15 K, x1 = 0.9002): 28.7 ± 1.2 mPa·s | mass density (298.15 K, x1 = 0.0978): 1139.45 ± 0.35 kg/m3 | mass density (298.15 K, x1 = 0.1979): 1224.19 ± 0.44 kg/m3 | mass density (298.15 K, x1 = 0.2957): 1287.87 ± 0.5 kg/m3 | mass density (298.15 K, x1 = 0.395): 1339.44 ± 0.55 kg/m3 | mass density (298.15 K, x1 = 0.493): 1381.19 ± 0.59 kg/m3 | mass density (298.15 K, x1 = 0.5893): 1415.41 ± 0.6 kg/m3 | mass density (298.15 K, x1 = 0.6917): 1446.29 ± 0.62 kg/m3 | mass density (298.15 K, x1 = 0.798): 1473.78 ± 0.65 kg/m3 | mass density (298.15 K, x1 = 0.9002): 1497.09 ± 0.67 kg/m3 | viscosity (303.15 K, x1 = 0.0978): 2.754 ± 0.11 mPa·s | viscosity (303.15 K, x1 = 0.1979): 4.457 ± 0.18 mPa·s | viscosity (303.15 K, x1 = 0.2957): 6.749 ± 0.28 mPa·s | viscosity (303.15 K, x1 = 0.395): 9.159 ± 0.37 mPa·s | viscosity (303.15 K, x1 = 0.493): 11.82 ± 0.48 mPa·s | viscosity (303.15 K, x1 = 0.5893): 14.7 ± 0.6 mPa·s | viscosity (303.15 K, x1 = 0.6917): 17.85 ± 0.73 mPa·s | viscosity (303.15 K, x1 = 0.798): 21.05 ± 0.86 mPa·s | viscosity (303.15 K, x1 = 0.9002): 24.29 ± 1 mPa·s | mass density (303.15 K, x1 = 0.0978): 1134.72 ± 0.35 kg/m3 | mass density (303.15 K, x1 = 0.1979): 1219.33 ± 0.44 kg/m3 | mass density (303.15 K, x1 = 0.2957): 1282.91 ± 0.5 kg/m3 | mass density (303.15 K, x1 = 0.395): 1334.42 ± 0.55 kg/m3 | mass density (303.15 K, x1 = 0.493): 1376.09 ± 0.58 kg/m3 | mass density (303.15 K, x1 = 0.5893): 1410.27 ± 0.6 kg/m3 | mass density (303.15 K, x1 = 0.6917): 1441.15 ± 0.62 kg/m3 | mass density (303.15 K, x1 = 0.798): 1468.63 ± 0.64 kg/m3 | mass density (303.15 K, x1 = 0.9002): 1491.96 ± 0.66 kg/m3 | viscosity (308.15 K, x1 = 0.0978): 2.519 ± 0.1 mPa·s | viscosity (308.15 K, x1 = 0.1979): 4.028 ± 0.16 mPa·s | viscosity (308.15 K, x1 = 0.2957): 6.033 ± 0.25 mPa·s | viscosity (308.15 K, x1 = 0.395): 8.092 ± 0.33 mPa·s | viscosity (308.15 K, x1 = 0.493): 10.37 ± 0.42 mPa·s | viscosity (308.15 K, x1 = 0.5893): 12.81 ± 0.52 mPa·s | viscosity (308.15 K, x1 = 0.6917): 15.44 ± 0.63 mPa·s | viscosity (308.15 K, x1 = 0.798): 18.24 ± 0.75 mPa·s | viscosity (308.15 K, x1 = 0.9002): 20.83 ± 0.85 mPa·s | mass density (308.15 K, x1 = 0.0978): 1130.03 ± 0.34 kg/m3 | mass density (308.15 K, x1 = 0.1979): 1214.47 ± 0.43 kg/m3 | mass density (308.15 K, x1 = 0.2957): 1277.97 ± 0.49 kg/m3 | mass density (308.15 K, x1 = 0.395): 1329.38 ± 0.54 kg/m3 | mass density (308.15 K, x1 = 0.493): 1371 ± 0.58 kg/m3 | mass density (308.15 K, x1 = 0.5893): 1405.15 ± 0.59 kg/m3 | mass density (308.15 K, x1 = 0.6917): 1436.01 ± 0.61 kg/m3 | mass density (308.15 K, x1 = 0.798): 1463.48 ± 0.64 kg/m3 | mass density (308.15 K, x1 = 0.9002): 1486.83 ± 0.66 kg/m3 | viscosity (313.15 K, x1 = 0.0978): 2.314 ± 0.094 mPa·s | viscosity (313.15 K, x1 = 0.1979): 3.647 ± 0.15 mPa·s | viscosity (313.15 K, x1 = 0.2957): 5.43 ± 0.22 mPa·s | viscosity (313.15 K, x1 = 0.395): 7.19 ± 0.29 mPa·s | viscosity (313.15 K, x1 = 0.493): 9.174 ± 0.38 mPa·s | viscosity (313.15 K, x1 = 0.5893): 11.26 ± 0.46 mPa·s | viscosity (313.15 K, x1 = 0.6917): 13.44 ± 0.55 mPa·s | viscosity (313.15 K, x1 = 0.798): 15.76 ± 0.64 mPa·s | viscosity (313.15 K, x1 = 0.9002): 18.12 ± 0.74 mPa·s | mass density (313.15 K, x1 = 0.0978): 1125.31 ± 0.34 kg/m3 | mass density (313.15 K, x1 = 0.1979): 1209.6 ± 0.43 kg/m3 | mass density (313.15 K, x1 = 0.2957): 1272.99 ± 0.49 kg/m3 | mass density (313.15 K, x1 = 0.395): 1324.28 ± 0.54 kg/m3 | mass density (313.15 K, x1 = 0.493): 1365.88 ± 0.58 kg/m3 | mass density (313.15 K, x1 = 0.5893): 1399.96 ± 0.59 kg/m3 | mass density (313.15 K, x1 = 0.6917): 1430.83 ± 0.61 kg/m3 | mass density (313.15 K, x1 = 0.798): 1458.28 ± 0.63 kg/m3 | mass density (313.15 K, x1 = 0.9002): 1481.67 ± 0.65 kg/m3 | viscosity (318.15 K, x1 = 0.0978): 2.13 ± 0.087 mPa·s | viscosity (318.15 K, x1 = 0.1979): 3.325 ± 0.14 mPa·s | viscosity (318.15 K, x1 = 0.2957): 4.916 ± 0.2 mPa·s | viscosity (318.15 K, x1 = 0.395): 6.44 ± 0.26 mPa·s | viscosity (318.15 K, x1 = 0.493): 8.18 ± 0.33 mPa·s | viscosity (318.15 K, x1 = 0.5893): 9.989 ± 0.41 mPa·s | viscosity (318.15 K, x1 = 0.6917): 11.83 ± 0.48 mPa·s | viscosity (318.15 K, x1 = 0.798): 13.78 ± 0.56 mPa·s | viscosity (318.15 K, x1 = 0.9002): 15.79 ± 0.65 mPa·s | mass density (318.15 K, x1 = 0.0978): 1120.61 ± 0.34 kg/m3 | mass density (318.15 K, x1 = 0.1979): 1204.73 ± 0.42 kg/m3 | mass density (318.15 K, x1 = 0.2957): 1268 ± 0.48 kg/m3 | mass density (318.15 K, x1 = 0.395): 1319.23 ± 0.53 kg/m3 | mass density (318.15 K, x1 = 0.493): 1360.77 ± 0.57 kg/m3 | mass density (318.15 K, x1 = 0.5893): 1394.81 ± 0.58 kg/m3 | mass density (318.15 K, x1 = 0.6917): 1425.65 ± 0.6 kg/m3 | mass density (318.15 K, x1 = 0.798): 1453.09 ± 0.63 kg/m3 | mass density (318.15 K, x1 = 0.9002): 1476.54 ± 0.65 kg/m3 | viscosity (323.15 K, x1 = 0.0978): 1.98 ± 0.081 mPa·s | viscosity (323.15 K, x1 = 0.1979): 3.079 ± 0.12 mPa·s | viscosity (323.15 K, x1 = 0.2957): 4.481 ± 0.18 mPa·s | viscosity (323.15 K, x1 = 0.395): 5.816 ± 0.24 mPa·s | viscosity (323.15 K, x1 = 0.493): 7.344 ± 0.3 mPa·s | viscosity (323.15 K, x1 = 0.5893): 8.911 ± 0.36 mPa·s | viscosity (323.15 K, x1 = 0.6917): 10.51 ± 0.43 mPa·s | viscosity (323.15 K, x1 = 0.798): 12.31 ± 0.5 mPa·s | viscosity (323.15 K, x1 = 0.9002): 13.95 ± 0.57 mPa·s | mass density (323.15 K, x1 = 0.0978): 1115.91 ± 0.33 kg/m3 | mass density (323.15 K, x1 = 0.1979): 1199.83 ± 0.42 kg/m3 | mass density (323.15 K, x1 = 0.2957): 1262.96 ± 0.48 kg/m3 | mass density (323.15 K, x1 = 0.395): 1314.12 ± 0.53 kg/m3 | mass density (323.15 K, x1 = 0.493): 1355.62 ± 0.57 kg/m3 | mass density (323.15 K, x1 = 0.5893): 1389.73 ± 0.58 kg/m3 | mass density (323.15 K, x1 = 0.6917): 1420.58 ± 0.6 kg/m3 | mass density (323.15 K, x1 = 0.798): 1448.03 ± 0.62 kg/m3 | mass density (323.15 K, x1 = 0.9002): 1471.41 ± 0.64 kg/m3
